Earlier results on one compound are cited in patent US20260200930A1, “PRODRUGS OF TEMOZOLOMIDE TO FACILITATE DELIVERY INTO BRAIN TUMORS” (H. LEE MOFFITT CANCER CENTER AND RESEARCH INSTITUTE, INC., priority 2022, published 2026).

The conditions of data set [1]: oral chemotherapy; % of the highest plasma concentration.

In the case of `Cn1nnc2c(C(N)=O)ncn2c1=O` [TMZ, temozolomide], the solubility in water entry is on record as “insoluble in water”. Further, in data set [1], the “brain concentration relative to highest plasma concentration that can safely be obtained” value was “about 40%”.
